Source: patent US20220133761A1, “NEUTROPHIL APOPTOSIS INDUCED BY NANOPARTICLES FOR TREATING INFLAMMATORY DISEASES” (WASHINGTON STATE UNIVERSITY, priority 2020, published 2022)

Experiments:
[1] = tested on: differentiated HL-60 cells; test: TUNEL apoptosis assay; format: cell-based, human; settings: CLSM images
Procedure: To further confirm the apoptosis of differentiated HL-60 cells induced by DOX, TUNEL assay was also performed using Cell Meter™ TUNEL (green fluorescence) Apoptosis Assay Kit (AAT Bioquest, Inc.) according to the manufacturer's protocol and the images were taken by a Nikon A1R^+ confocal laser scanning microscope.

LPS-challenged mice = test: Survival study in sepsis mouse model (i.p. LPS 50 mg/kg); format: in vivo; settings: 72 h, 0.2 mg/kg DOX i.v. 4 h after i.p. LPS 50 mg/kg
Procedure: Adult CD-1 mice were i.p. injected with LPS (50 mg/kg) in the mouse sepsis model. 4 hours later, the LPS-challenged mice were grouped randomly (10 mice per group) and treated (i.v.) with PBS, free DOX (0.2 mg/kg), and prodrug DOX-hyd-BSA NPs (equal to 0.2 mg/kg of free DOX). The animals were monitored every 6 h in the first 12 h followed by monitoring mice every 12 h in 72 h.

[2] = tested on: differentiated HL-60 cells; test: Apoptosis analysis, Annexin V-FITC / 7AAD staining (flow cytometry, CLSM); format: cell-based, human; settings: for apoptotic cells by flow cytometry: 24 h, DOX 3 μg/mL; for Annexin V-FITC / 7AAD staining by confocal microscopy: 24 h treatment
Procedure: To investigate the apoptosis of neutrophils induced by DOX, Annexin V-FITC and 7AAD were used to double stain differentiated HL-60 cells. […] The cells were re-suspended in a binding buffer for staining of Annexin V-FITC and 7AAD (emission at 650 nm) according to the manufacturer's protocol (Invitrogen). Stained cells were analyzed using a flow cytometer and imaged by a Nikon A1R^+ confocal laser scanning microscope.

[3] = tested on: differentiated HL-60 cells (neutrophil-like cells); test: In vitro cytotoxicity, CCK-8 assay; format: cell-based, human; settings: 24 h, different concentrations of DOX
Procedure: Cytotoxic effects of BSA NPs on HL-60 cells were measured by CCK-8 assay. HL-60 cells were plated in 96-well plates (Costar, Corning, N.Y.) at 5,000-10,000 cells/well. After incubation for 24 h, the culture medium was removed and a complete medium with various concentrations of free DOX, BSA and DOX-conjugated BSA NPs was used to incubate cells for 24 h, respectively. 10 μL of the solution cell proliferation reagent (Promega, Madison, Wis.) per well was added. Then, the cell viability was measured by a Synergy Neo fluorescence plate reader (BioTek, Winooski, Vt.) at 490 nm.

[4] = tested on: heart, liver, spleen, lung and kidney; test: Toxicity by histological analysis (H&E staining of major organs); settings: for tissue or cellular damage in H&E sections of heart, liver, spleen, lung, kidney: 0.2 mg/kg DOX
Procedure: After different treatments (healthy, PBS, 4 mg/kg of free DOX, 0.2 mg/kg of free DOX, DOX-hyd-BSA NPs and DOX-ab-BSA NPs, equal to 0.2 mg/kg of DOX for NPs), mice were sacrificed by carbon dioxide asphyxiation. […] The samples were imaged by a microscope (ZEISS, Observer. Z1, USA).

[5] = Serum stability of nanoparticles in PBS with 20% FBS; format: physicochemical; settings: pH 7.4, incubation for 4 days
Procedure: Particle size and polydispersity indexes (PDI) were measured using Malvern Zetasizer Nano90 (Westborough, Mass.). The samples were incubated in PBS at pH 7.4 for 2 h, and the measurements were conducted in a 1.0 mL quartz cuvette using a diode laser of 633 nm at 25° C. and a scattering angle was fixed at 90°. To evaluate their serum stability, nanoparticles were dispersed in 20% FBS PBS solution (pH 7.4) at a final concentration of 1 mg/mL. Nanoparticle sizes were measured at the predefined time points. Transmission electron microscopy (TEM) of nanoparticles was also performed using a FEI Technai G2 20 Twin TEM (Hillsboro, Oreg.).

[6] = pH-triggered DOX release, UV-Vis of supernatants after 2 h incubation; format: physicochemical; settings: pH 5.0 to 7.4, 2 h incubation in PBS
Procedure: To confirm the pH-triggered drug release property, BSA NPs, DOX-ab-BSA NPs and DOX-hyd-BSA NPs were incubated in PBS at pH 7.4, 6.5 and 5.0 for 2 h, respectively. After centrifugation, the supernatants were collected to determine DOX concentrations using a UV-Vis spectrometer.

[7] = In vitro drug release profile (dialysis, 37 C); format: physicochemical; settings: pH 5.0-7.4, in 48 h
Procedure: Release profiles of DOX from NPs were studied using dialysis method at 37° C.(33) Briefly, 3 mg of NPs was dispersed in 3 mL (Ve) PBS at different pH, and then was placed in a dialysis bag (MWCO 3500 Da). The dialysis bag was immersed in 47 mL PBS (pH 7.4, 6.5 or 5.0) in a beaker. The beaker was then placed in a 37° C. water bath and stirred at 110 rpm. The samples were drawn at desired time intervals and the drug concentration was measured using UV-Vis absorption. The experiments were carried out in triplicate at each pH value. The accumulative drug release percent (Er) was calculated based on equation (1).
where, mdrug represents the amount of DOX in NPs, V0 was the whole volume of release media (V0=50 mL), Ci represents the concentration of DOX in the ith sample.

Compound	cells with co-staining of DOX and TUNEL [1] [%]	mouse survival (LPS-challenged mice)	apoptotic cells by flow cytometry [2] [%]	Annexin V-FITC / 7AAD staining by confocal microscopy [2]	cytotoxicity (cell viability) [3]	tissue or cellular damage in H&E sections of heart, liver, spleen, lung, kidney [4]	myocardial damage (vacuolization, myofibril loss) ([4]; high dose 4.0 mg/kg)	co-staining of DOX and TUNEL [1]	serum stability (aggregation, diameter change) [5]	DOX absorption in supernatant [6]	cumulative DOX release [7]
COc1cccc2c1C(=O)c1c(O)c3c(c(O)c1C2=O)C[C@@](O)(C(=O)CO)C[C@@H]3O[C@H]1C[C@H](N)[C@H](O)[C@H](C)O1.Cl [free DOX, doxorubicin hydrochloride]	~100	10-20%	73	contained staining of Annexin-V-FITC, and less staining of 7AAD	cytotoxicity was similar for both free DOX and DOX-hyd-BSA NPs	did not show any noticeable signs of tissue or cellular damage	induced myocardial damage				
DOX-ab-BSA NPs			20	did not induce cell apoptosis	more efficient compared to that of DOX-ab-BSA NPs	did not show any noticeable signs of tissue or cellular damage		a few cells possessed TUNEL signal	no aggregation (diameter change) was observed	did not show the absorption of DOX in their supernatants	10-20%
